Results published in patent publication US20250206732A1, “COMPOUNDS AND METHODS FOR THE TARGETED DEGRADATION OF KRAS” (Arvinas Operations, Inc., priority 2022, published 2025).

How the values were obtained:
[1] = target: T1, SW1573 HiBiT-KRASG12C (Homo sapiens, UniProt P01116, G12C); assay: HiBiT degradation assay (G12C), SW1573 HiBiT-KRASG12C cells; assay type: cell-based; details: 24 hours treatment; for DC50: HiBiT luminescence; for Dmax: maximum degradation observed;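 on DC50: Letter grades: C is 1000 to 3000 nM and D is above 3000 nM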
T1 construct: expressed in transfected cells
T1 sequence (P01116 1-188 isoform P01116-2 G12C): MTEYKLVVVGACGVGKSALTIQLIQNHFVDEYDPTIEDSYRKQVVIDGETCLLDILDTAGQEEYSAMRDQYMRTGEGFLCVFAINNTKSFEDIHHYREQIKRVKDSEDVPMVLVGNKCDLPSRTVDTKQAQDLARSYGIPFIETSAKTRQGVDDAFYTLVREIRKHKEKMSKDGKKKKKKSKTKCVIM
Method in brief: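 SW1573 cells expressing N-terminal HiBiT-KRASG12C (clone E6) treated 24 h at 37 °C with 10 μM to 508 pM compound in 0.5% DMSO, triplicate. HiBiT lytic luminescence normalized to DMSO, 4-parameter fit gives DC50 and Dmax; points with ≥50% alamar blue viability loss excluded.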

[2] = target: T2, AsPC-1 HiBiT-KRASG12D (Homo sapiens, UniProt P01116, G12D); assay: HiBiT degradation assay (G12D), AsPC-1 HiBiT-KRASG12D cells; assay type: cell-based; details: 24 hours treatment; for Dmax: ASPC1, AsPC-1 HiBiT-KRASG12D cells, maximum degradation observed; for DC50: AsPC-1 HiBiT-KRASG12D cells, HiBiT luminescence
T2 construct: insert the HiBiT tag onto the N-terminus of one or more of the endogenous KRAS alleles; endogenous in cells; host or cells: AsPC-1 (ATCC CRL-1682), CRISPR-Cas9 knock-in clone, one tagged allele
T2 sequence (P01116 1-188 isoform P01116-2 G12D): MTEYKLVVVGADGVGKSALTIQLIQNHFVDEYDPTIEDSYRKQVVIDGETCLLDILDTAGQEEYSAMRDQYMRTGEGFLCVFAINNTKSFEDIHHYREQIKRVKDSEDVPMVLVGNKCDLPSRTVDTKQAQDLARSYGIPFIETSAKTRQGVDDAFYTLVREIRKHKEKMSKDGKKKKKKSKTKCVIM
Method in brief: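 24 h cmpd treatment, 37° C/5% CO2, AsPC-1 HiBiT-KRASG12D clone (CRISPR N-term tag). Alamar blue 1×, 4 h, fluorescence. PBS wash, Nano-Glo HiBiT lytic reagent, 45 min RT, luminescence. Triplicates.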

Structure (SMILES) | DC50 [1] | Dmax [2] | DC50 [2] | Dmax [1]
CCc1cccc2cc(O)cc(-c3ncc4c(N5CC6CCC(C5)N6)nc(OCCN5CCC(CCOCC(=O)N[C@H](C(=O)N6C[C@H](O)C[C@H]6C(=O)N[C@@H](C)c6ccc(-c7scnc7C)cc6)C(C)(C)C)CC5)nc4c3F)c12 [Compound 13] | > 3000 nM | 80 to 100% | 600 to 1000 nM | –
CCc1cccc2cc(O)cc(-c3ncc4c(N5CC6CCC(C5)N6)nc(OCCN5CCC(COCC(=O)N[C@H](C(=O)N6C[C@H](O)C[C@H]6C(=O)N[C@@H](C)c6ccc(-c7scnc7C)cc6)C(C)(C)C)CC5)nc4c3F)c12 [Compound 21, (2S,4R)-1-[(2S)-2-[[2-[[1-[2-[4-(3,8-diazabicyclo[3.2.1]octan-3-yl)-7-(8-ethyl-3-hydroxy-1-naphthyl)-8-fluoro-pyrido[4,3-d]pyrimidin-2-yl]oxyethyl]-4-piperidyl]methoxy]acetyl]amino]-3,3-dimethyl-butanoyl]-4-hydroxy-N-[(1S)-1-[4-(4-methylthiazol-5-yl)phenyl]ethyl]pyrrolidine-2-carboxamide] | > 3000 nM | 80 to 100% | < 600 nM | –
Cc1ncsc1-c1ccc([C@H](C)NC(=O)[C@@H]2C[C@@H](O)CN2C(=O)[C@@H](c2cc(N3CCN(C(=O)OC[C@H]4CC[C@@]5(COc6nc(N7CC8CCC(C7)N8)c7cnc(-c8cc(O)cc9ccccc89)c(F)c7n6)CCCN45)CC3)no2)C(C)C)cc1 [Compound 37, [(3R,7aR)-7a-{[(4-{3,8-diazabicyclo[3.2.1]octan-3-yl}-8-fluoro-7-(3-hydroxynaphthalen-1-yl)pyrido[4,3-d]pyrimidin-2-yl)oxy]methyl}-hexahydro-1H-pyrrolizin-3-yl]methyl 4-{5-[(2R)-1-[(2S,4R)-4-hydroxy-2-{[(1S)-1-[4-(4-methyl-1,3-thiazol-5-yl)phenyl]ethyl]carbamoyl}pyrrolidin-1-yl]-3-methyl-1-oxobutan-2-yl]-1,2-oxazol-3-yl}piperazine-1-carboxylate] | > 3000 nM | 80 to 100% | < 600 nM | –
Cc1ncsc1-c1ccc([C@H](C)NC(=O)[C@@H]2C[C@@H](O)CN2C(=O)[C@@H](NC(=O)COCC2CCN(CCOc3nc(N4CC5CCC(C4)N5)c4cnc(-c5cc(O)cc6ccccc56)c(F)c4n3)CC2)C(C)(C)C)cc1 [Compound 23, (2S,4R)-1-[(2S)-2-[[2-[[1-[2-[4-(3,8-diazabicyclo[3.2.1]octan-3-yl)-8-fluoro-7-(3-hydroxy-1-naphthyl)pyrido[4,3-d]pyrimidin-2-yl]oxyethyl]-4-piperidyl]methoxy]acetyl]amino]-3,3-dimethyl-butanoyl]-4-hydroxy-N-[(1S)-1-[4-(4-methylthiazol-5-yl)phenyl]ethyl]pyrrolidine-2-carboxamide] | > 3000 nM | 20 to 60% | 1000 to 3000 nM | –
CCc1cccc2cc(O)cc(-c3ncc4c(N5CC6CCC(C5)N6)nc(OC[C@]56CCCN5[C@@H](COc5cc(C(C(=O)N7C[C@H](O)C[C@H]7C(=O)N[C@@H](C)c7ccc(-c8scnc8C)cc7)C(C)C)on5)CC6)nc4c3F)c12 (stereo partly drawn) [Compound 38, (2S,4R)-1-[2-(3-{[(3R,7aR)-7a-{[(4-{3,8-diazabicyclo[3.2.1]octan-3-yl}-7-(8-ethyl-3-hydroxynaphthalen-1-yl)-8-fluoropyrido[4,3-d]pyrimidin-2-yl)oxy]methyl}-hexahydro-1H-pyrrolizin-3-yl]methoxy}-1,2-oxazol-5-yl)-3-methylbutanoyl]-4-hydroxy-N-[(1S)-1-[4-(4-methyl-1,3-thiazol-5-yl)phenyl]ethyl]pyrrolidine-2-carboxamide] | 1000 to 3000 nM | 80 to 100% | < 600 nM | 20 to 60%
Cc1ccc2[nH]ncc2c1-c1ncc2c(N3CC4CCC(C3)N4)nc(OCCN3CCC(COc4cc([C@H](C(=O)N5C[C@H](O)C[C@H]5C(=O)N[C@@H](C)c5ccc(-c6scnc6C)cc5)C(C)C)on4)CC3)nc2c1F [Compound 3, (2S,4R)-1-[(2R)-2-[3-[[1-[2-[4-(3,8-diazabicyclo[3.2.1]octan-3-yl)-8-fluoro-7-(5-methyl-1H-indazol-4-yl)pyrido[4,3-d]pyrimidin-2-yl]oxyethyl]-4-piperidyl]methoxy]isoxazol-5-yl]-3-methyl-butanoyl]-4-hydroxy-N-[(1S)-1-[4-(4-methylthiazol-5-yl)phenyl]ethyl]pyrrolidine-2-carboxamide] | > 3000 nM | – | > 3000 nM | –
CCc1cccc2cccc(-c3ncc4c(N5CC6CCC(C5)N6)nc(OC[C@]56CCCN5[C@@H](COC(=O)N5CCN(c7cc([C@H](C(=O)N8C[C@H](O)C[C@H]8C(=O)N[C@@H](C)c8ccc(-c9scnc9C)cc8)C(C)C)on7)CC5)CC6)nc4c3F)c12 [Compound 34, [(3R,7aR)-7a-{[(4-{3,8-diazabicyclo[3.2.1]octan-3-yl}-7-(8-ethylnaphthalen-1-yl)-8-fluoropyrido[4,3-d]pyrimidin-2-yl)oxy]methyl}-hexahydro-1H-pyrrolizin-3-yl]methyl 4-{5-[(2R)-1-[(2S,4R)-4-hydroxy-2-{[(1S)-1-[4-(4-methyl-1,3-thiazol-5-yl)phenyl]ethyl]carbamoyl}pyrrolidin-1-yl]-3-methyl-1-oxobutan-2-yl]-1,2-oxazol-3-yl}piperazine-1-carboxylate] | > 3000 nM | 80 to 100% | < 600 nM | –
CCc1cccc2cc(O)cc(-c3ncc4c(N5CC6CCC(C5)N6)nc(OC[C@@]56CCCN5[C@H](COC(=O)N5CCN(c7cc([C@@H](C(=O)N8C[C@H](O)C[C@H]8C(=O)N[C@@H](C)c8ccc(-c9scnc9C)cc8)C(C)C)on7)CC5)CC6)nc4c3F)c12 [Compound 4] | > 3000 nM | 20 to 60% | < 600 nM | –
CCc1cccc2cc(O)cc(-c3ncc4c(N5CCCCCC5)nc(OC[C@]56CCCN5[C@@H](COC(=O)N5CCN(c7cc([C@H](C(=O)N8C[C@H](O)C[C@H]8C(=O)N[C@@H](C)c8ccc(-c9scnc9C)cc8)C(C)C)on7)CC5)CC6)nc4c3F)c12 [Compound 45, [(3R,7aR)-7a-({[4-(azepan-1-yl)-7-(8-ethyl-3-hydroxynaphthalen-1-yl)-8-fluoropyrido[4,3-d]pyrimidin-2-yl]oxy}methyl)-hexahydro-1H-pyrrolizin-3-yl]methyl 4-{5-[(2R)-1-[(2S,4R)-4-hydroxy-2-{[(1S)-1-[4-(4-methyl-1,3-thiazol-5-yl)phenyl]ethyl]carbamoyl}pyrrolidin-1-yl]-3-methyl-1-oxobutan-2-yl]-1,2-oxazol-3-yl}piperazine-1-carboxylate] | ≤ 600 nM | 80 to 100% | < 600 nM | 60 to 80%
